Results taken from patent US6389740B1, “Lethal mosquito breeding container” (The United States of America as represented by the …, priority 1997, dated 2002).
Like-named read-outs stand apart in the source and are kept apart here.

Key:
[1] = 2 year beagle; cited from earlier work
mosquitoes = assay: Caged mortality test of egg laying structures returned after one month in the field; conditions: paper paddles returned to the lab after one month in the field
Experimental: A field test of a lethal breeding container according to Example 2, containing 0.87 deltramethrin on the egg laying structure, was conducted at three military housing sites in the Rio de Janeiro area of Brazil. At each housing site, six houses were selected to receive the lethal breeding containers. About 500 meters away, six houses were selected to serve as control units.
After one month in the field, the egg laying structures from the lethal container breeding containers were dried and shipped to the U.S. for testing. Four egg laying structures from outside lethal mosquito breeding containers and four egg laying structures from inside lethal mosquito breeding containers were reused in lethal. mosquito breeding containers and the mortality rate was determined.
A 1 cubic foot mosquito cage was used. The mosquitoes are given a blood meal at day 4 to 6 after post-emergence. […]
The mortality rate is determined by counting the number of deceased mosquitoes and live mosquitoes, adding these numbers together to arrive at the total number of mosquitoes exposed, and then dividing number of deceased mosquitoes by the total number of mosquitoes and multiplying that quotient by 100%. […]

[2] = rat, 90 day period; cited from earlier work

CC1(C)[C@H](C(=O)O[C@H](C#N)c2cccc(Oc3ccccc3)c2)[C@@H]1C=C(Br)Br [deltamethrin]
NOEL [1]: 1 mg/kg/day | average mortality in caged tests (mosquitoes): 80% | NOEL [2]: 1 mg/kg/day
